From a melting point compilation (Tetko et al.; mined from patent text by program, amines drawn as free bases though some values may be those of a salt) come the findings set out here.

The structures appear in SMILES notation.

As a reminder, the melting point is the temperature of the solid-liquid transition.

As for `O=C1NC(Cc2c[nH]c3ccccc23)C(=O)N1CCCN1CCC(c2ccccc2)CC1` (stereo not given), the melting point fell in the range of 179 to 180 °C.
The compound `O=C(O)c1ccc(CCCOCCCCCCNCC(O)c2ccc(O)c(CO)c2)cc1` (stereo not given) gave a melting point of 50 to 58 °C.
In the case of `NC[C@@H](O)[C@H](Cc1ccccc1)N(Cc1ccccc1)Cc1ccccc1`, the melting point fell in the range of 72 to 76 °C.
`COc1cc(C(=O)O)ccc1Cc1cccc2ccc(CCCC(=O)N(C)C)cc12` registered a melting point of 231 to 232 °C.
Consider `c1c(C2CC2)n[nH]c1C1CC1`, for which the melting point fell in the range of 161 to 164 °C.
The result for `C[Si](C)(C)C#Cc1c[nH]c(=O)[nH]c1=O` reads 187 to 189 °C.
`Cc1ccc(S(=O)(=O)ON=C(CCN2C(=O)c3ccccc3C2=O)n2nc(C(C)(C)C)cc2N)cc1`: the melting point is 80 to 82 °C.
In the case of `O=C(Cc1ccc(O)cc1)c1ccc(O)cc1O` it was 186 °C; in that of `CCCn1cc(C(=O)OCC)c(=O)c2cc(CN3CCOCC3)oc21`, 195 to 196 °C; in that of `Nc1cc(N2CCN(C(c3ccccc3)(c3ccccc3)c3ccccc3)CC2)nc(N)n1`, 152 to 160 °C.
`CCOC(CNc1nc2ccccc2[nH]1)OCC` had a melting point of 117 to 121 °C.
For `Nc1c(OC[C@@H]2CO2)cccc1[N+](=O)[O-]`, the melting point fell in the range of 107 to 109 °C.
`CC(C)C[C@@H](OC(=O)c1cccnc1)C(=O)O` returned a melting point of 101 to 103 °C.
The compound `Cc1ccccc1C(=O)Nc1ccc(C(=O)N2Cc3cccn3-c3ccccc32)cc1` registered a melting point of 206 to 207 °C.
As for `O=C(O)c1cccc(Nc2nc(Oc3ccccc3)nc(Oc3cccc([N+](=O)[O-])c3)n2)c1`, the melting point lay within 225 to 228 °C.
As to `C[C@@H](O[Si](C)(C)C(C)(C)C)[C@H]1C(=O)N[C@@H]1[C@@H](C)C(=O)C(C)(C)O[Si](C)(C)C`, the melting point was determined as 162 °C.
With `C[C@@H]1C(=O)C[C@H]2C[C@@H]1OO[C@@]2(C)/C=C\c1cccc(C(F)(F)F)c1`, the melting point came out at 101 °C.
In the case of `C=C(C)c1c(OCC)cc(Cc2cnc(N)nc2N)cc1OCC` it was 196 to 198 °C; in that of `O=P(O)(O)Cc1ccccc1-c1ccccc1`, 168 to 169 °C; in that of `COCCCNC(=O)C1CCN(C(=O)c2[nH]c(C)c(-c3nc4ccc(C(=O)c5ccccc5)cc4[nH]3)c2C)CC1`, 289 to 291 °C.
Consider `CCCCCCNC(=N)NC#N`, for which the melting point was in the range of 103 to 105 °C.
As to `C1=C(c2cccs2)CCN(CCCCc2c[nH]c3cc4c(cc23)OCO4)C1`, the melting point was 86 °C.
For `CCC(C)(C)c1ccc(OCCCCc2c(O)c(N)c3ccccc3c2C(N)=O)c(C(C)(C)CC)c1`, the melting point lay in the range of 93 to 96 °C.
The compound `O=c1ccc(C(c2ccccc2)c2ccccc2)c[nH]1` returned a melting point of 174 to 176 °C.
As for `COc1ccc(OC)c2c1C[C@](C)(O)CC21SCCS1`, the melting point is 152 to 153 °C.
Consider `NS(=O)(=O)c1cccc(-c2cc(-c3nc(-c4ccc(C(F)(F)F)cc4)cc(C(F)(F)F)n3)ccn2)c1`, for which the melting point was 237 °C.
The result for `COc1cc([N+](=O)[O-])c2c(c1OC)C(=O)CC2` reads 202 to 204 °C; that for `O=C(NNC(=O)c1ccccn1)c1ccccn1`, 224 to 225 °C; that for `Nc1ccc(-c2nc3cc(N)ccc3o2)cc1`, 226 to 228 °C.
Turning to `NS(=O)(=O)c1ccc(C#Cc2cnc3c(C(F)(F)F)cc(-c4ccc(C(F)(F)F)cc4)cn23)cc1`, the melting point lay within 278 to 280 °C.
The compound `N#Cc1ccc(NCCCN2C3CCC2CNC3)cc1` came in with a melting point of 44 to 46 °C.
`O=C1CCC(N2C(=O)c3ccc(CNC(=O)c4ccc5ccccc5n4)cc3C2=O)C(=O)N1` (stereo not given) returned a melting point of 205 to 207 °C.
Regarding `COc1ccc(F)c(NCc2ccccc2)c1`, the melting point was in the range of 56 to 58 °C.
The result for `CNc1ncc2c(-c3cccc(Cl)c3)cc(/C=C/C(=O)O)c(OC)c2n1` reads 291 to 295 °C; that for `O=C1c2ccccc2C(=O)N1CCCOc1ccc(OCc2ccccc2)cc1`, 141 to 143 °C; that for `OC[C@H]1CCc2cccc(O)c2O1`, 131 to 132 °C.
Consider `CCC1(c2cccs2)OCC(=O)Nc2ccc(-c3ccc(F)c(C#N)c3)cc21` (stereo not given), for which the melting point is 197 to 199 °C.
Regarding `CC(=O)C#CC1CCC2C3CCC4CC(O)CCC4(C)C3CCC12C` (stereo not given), the melting point lay within 148 to 150 °C.
In the case of `CC(C)(C)Sc1c(CC(C)(C)C(=O)O)n(Cc2ccc(Cl)cc2)c2ccc(OCc3cccnc3)cc12`, the melting point lay in the range of 206 to 208 °C.
Take `CCCCCCCCCCCCCCOc1cccc(CBr)c1`: the melting point was 34 to 35 °C.
`CCONC(=O)c1c(Cl)ccc2cc(Cl)cnc12`: the melting point is 140 °C.
`O=C(NCCc1ccc2c(c1)OCO2)C12CC3CC(CC(C3)C1)C2` displayed a melting point of 146 to 148 °C.
The result for `Cc1nccn1-c1nn(Nc2cnccn2)nc1-c1cccc(C#N)c1` reads 276 °C.
On to `N#CC(c1ccccc1)(c1ccccc1)[C@H]1CCCN(CCc2ccccc2)C1`, for which the melting point fell in the range of 134 to 138 °C.
The result for `CN(C)c1cc(C(O)c2ccccc2)c([N+](=O)[O-])cc1[N+](=O)[O-]` (stereo not given) reads 147 to 150 °C.
The result for `O=C(CCl)Nc1ccc2c(c1NC(=O)c1cccc(F)c1)C(=O)c1ccccc1C2=O` reads 197 to 198 °C; that for `O=C(O)c1csc(NC(=O)C(CC2CCCC2)c2ccc(Cl)c(Cl)c2)n1` (stereo not given), 285 to 287 °C.
In the case of `O=C1c2ccccc2C(=O)N1Cc1nc(C2CC2)no1`, the melting point was determined as 115 °C.
In the case of `COCc1cnc2c(NC(=O)c3c(Cl)cccc3Cl)ccc(C)c2c1Cl`, the melting point turned out to be 180 °C.
`CCC(=O)OCC12CCC(=O)C=C1CCC1C2CCC2(C)C(OC(=O)CC)CCC12` (stereo not given): the melting point was 82 to 84 °C.
For `CC(C)n1cnc2c(NCc3ccncc3)nc(F)nc21`, the melting point was 170 to 173 °C.
For `CC(C)(C)OC(=O)Cn1c(C(=O)OCc2ccccc2)cc2cnccc21`, the melting point stood at 94 °C.
The result for `CN1CCN(N=C2CC(c3ccc(C(F)(F)F)cc3)Cc3[nH]c4ccc(Cl)cc4c(=O)c32)CC1` (stereo not given) reads 330 °C.
In the case of `CCOC(=O)Cc1cc(O)n[nH]1` it was 114 to 117 °C; in that of `Cc1ccc2c(c1)CC1(CCC(=O)CC1)C21OCCO1`, 124 to 127 °C; in that of `CC1(C#N)CCc2cc(O)c(C(C)(C)C)cc2O1` (stereo not given), 153 to 155 °C.
`Nc1c(Cl)c(F)nc(F)c1Cl`: the melting point turned out to be 110 °C.
In the case of `COc1ccc(-c2[nH]cnc2-c2cc(OC)c(Br)c(OC)c2)cc1N` it was 160 to 162 °C; in that of `CCCCOc1ccc(Oc2cc(=O)c3c(OCCCC)c(OC)c(OCCCC)cc3o2)cc1`, 62 to 63 °C.
Turning to `O=CNc1ccc(OCCNCC(O)c2ccc(OCc3ccccc3)cc2)cc1` (stereo not given), the melting point was 152 °C.
The compound `O=C1Nc2ccccc2OC1c1ccc(Cl)cc1` (stereo not given) had a melting point of 180 to 182 °C.
As to `FC(F)Sc1ccc(-n2cnnn2)cc1`, the melting point lay within 94 to 97 °C.
`Nc1ccc2c(c1)Sc1ccccc1N2`: the melting point was in the range of 150 to 156 °C.
`Cc1ccc(C(=O)Nc2ccc(C(=O)N3Cc4ccccc4Cc4ccccc43)cc2)c(C)c1`: the melting point fell in the range of 197 to 199 °C.
`CC1(C)CCC(NC(N)=O)CC1`: the melting point was in the range of 174 to 176 °C.
Turning to `CC1(c2ccccc2)C(=O)c2c(cc(OCC(=O)O)c(Cl)c2Cl)C1c1ccccc1` (stereo not given), the melting point was 203 to 205 °C.
The result for `O=[N+]([O-])c1ccc(-n2cncn2)cc1F` reads 90 to 91 °C.
Turning to `O=C1OC2CCC1CC2`, the melting point lay in the range of 125 to 126 °C.
In the case of `O=C(c1ccccc1CBr)c1ccc(Cl)cc1CBr`, the melting point was in the range of 152 to 153 °C.
As to `CC(C=O)C1CCC2C3CCC4CCCCC4(C)C3CCC12C` (stereo not given), the melting point was in the range of 248 to 252 °C.
Turning to `OC(c1ccc(Br)cc1)(c1ccc(Br)cc1)c1cncnc1`, the melting point fell in the range of 89 to 90 °C.
`CCOC(=O)c1cnn(-c2ccc(F)cc2)c1C` had a melting point of 48 to 49 °C.
As for `O=S(=O)(Nc1ccc2c(OCc3coc(-c4ccccc4)n3)cccc2c1)C(F)(F)F`, the melting point lay within 195 to 197 °C.
The result for `O=C1COc2ccc(NC(=O)C(=O)N3CCC(Cc4ccc(F)cc4)CC3)cc2N1` reads 197 to 200 °C.
In the case of `CC(C)NC(=O)N1CCC(F)(Cc2c3c(nn2C)c(N)nc2ccccc23)CC1` it was 241 to 244 °C.
As to `CCOC(=O)CCC(=O)c1ccc(CCN(CC=Cc2ccc(Cl)cc2)S(=O)(=O)c2ccc(Cl)cc2)cc1`, the melting point lay within 100 to 101 °C.
Compound `CCSc1nc2cccc(C(=O)O)c2n1Cc1ccc(-c2ccccc2-c2nc(=O)o[nH]2)cc1` yielded a melting point of 146 to 148 °C.
`CC(C)C[C@H](NC(=O)COc1ccc(Cl)cc1)C(=O)N[C@@H](C(C)C)[C@@H](O)c1c(-c2ccccc2)c1=O` showed a melting point of 88 to 90 °C.
`COc1ccc(CNS(=O)(=O)Cc2ccc3[nH]cc(CC#N)c3c2)cc1` returned a melting point of 144 to 145 °C.
The compound `Cn1cc(-c2cc(-c3cnc4ccccc4c3)ccn2)n(-c2ccc(C(C)(C)CN)cc2)c1=O` had a melting point of 132 °C.
The compound `CCOCc1nc2c(N)nc3ccccc3c2n1CC(C)(C)OCCS(=O)(=O)c1ccccc1` registered a melting point of 187 to 189 °C.
The compound `COC(=O)c1cc(-c2cccc(Cl)c2Cl)c(C(=O)OC)[nH]1` gave a melting point of 143 to 145 °C.
Compound `CC1=C(CO)C(C)(C)CCC1=NO` returned a melting point of 152 to 155 °C.
For the compound `COc1cc2c(Nc3cccc(Cl)c3F)ncnc2cc1OC1CCN(C(=O)C(C)(C)CO)CC1`, the melting point is 111 to 115 °C.
In turn, `COC(=O)/C=C/c1cncc(-c2ccc(C)cc2)c1` displayed a melting point of 141 to 144 °C.
Turning to `CCOC(=O)CCCC1CCN(CCOC(c2ccccc2)c2ccc(F)cc2)CC1` (stereo not given), the melting point lay in the range of 119 to 120 °C.
The result for `CC1(C)CC(=O)C(C)(C)c2cc(C=O)ccc21` reads 82 to 84 °C; that for `O=C1CCN(C(=O)c2cc(-c3ccccc3)c(=O)n3c2-c2sccc2CC3)CC1`, 218 to 220 °C.
The result for `COC(=O)c1ccc2c(c1)Nc1nccnc1S2` reads 265 to 268 °C.
As to `O=C(c1ccc(O)cc1)c1ccc(OCCOCCO)cc1`, the melting point was 126 to 127 °C.
